Experimental data published in patent US20200362302A1, “METHOD FOR PRODUCING CELL” (FUJIFILM Corporation, priority 2018, published 2020).

System: human iPS cells
Assay: treatment efficiency by flow cytometry (positive percentage of CD75)
Type: cell-based
Experimental: The culture and the treatment were performed in the same manner as in Example 1 except that the treatment was performed under conditions in which a concentration of PD0325901 was 0.3 to 1.0 μmol/L, and subculture was performed for about 2 weeks after day 9. The completion of the treatment in Example 1 was evaluated by a positive percentage of a cell surface marker CD75. The cultured human iPS cells were detached with TrypLE™ Select, and stained with Alexa Fluor 647 Mouse Anti-Human CD75 antibody. A positive percentage of CD75 was analyzed by a flow cytometer Attune NxT.

SMILES: O=C(NOC[C@H](O)CO)c1ccc(F)c(F)c1Nc1ccc(I)cc1F [PD0325901, N-[(2R)-2,3-dihydroxypropoxy]-3,4-difluoro-2-[(2-fluoro-4-iodophenyl)amino]-benzamide]
- CD75 (any of the cell lines, PD0325901 within the range of 0.3 to 0.5 μmol/L): not positive
- positive percentage of CD75 (three lines of human iPS cells, PD0325901 at 0.3 to 1.0 μmol/L): increase in positive percentage of CD75
